EP0066918A1 (THE PROCTER & GAMBLE COMPANY, priority 1981, dated 1982)
Several values for one entry are separate records, joined by “and”; a condition that tells them apart may be missing. Equal entries are not always repeated.

What was measured:
[1] = system: aspirin-induced gastric lesions; test: animal or person; assay type: in vivo, Male Sprague-Dawley rats; details: for inhibition in vivo at 125 mg/kg: Rattus norvegicus, po, 2 h, purine derivative dose 125 mg/kg with 125 mg/kg aspirin, read-out: % Reduction in Lesions; for minimization of gastric damage (statement in words): general statement in the description, high dosage = anti-inflammatory:purine ratios from about 1:1.5 to about 1:4; for reduction in lesions / lesion reduction: both 125 mg/kg
Method: For these experiments, the test materials were suspended in 0.5% methyl cellulose aqueous solutions. The pH of the aspirin solution was 2.7 and the pH of the solutions containing the purine materials was adjusted to pH 2.7 using HC1.
Male Sprague-Dawley rats were obtained (approximate weight = 150 grams each) and allowed to acclimate for at least 4 days. During this period the animals were allowed Purina Rat Chow and,tap water ad libitum. The animals were food fasted about 18 hours prior to dosing; during this period water was provided ad libitum.
The rats were dosed by oral gavage using a #8 catheter attached to a 1 cc syringe. The animals were dosed and sacrificed according to a predetermined schedule (the dosing order was determined at random prior to starting each experiment). After dosing, the animals were also water fasted.
The rats were sacrificed, either by C02 inhalation or cervical dislocation, two hours after dosing. Their stomachs were removed intact and placed on plastic-backed absorbent paper. The stomachs were then opened along the greater curvature, the fundus and esophagus were removed and the stomach was spread over a piece of white cardboard, using cotton-tipped applicators to level the rugae. The stomachs were then examined, using a dissecting microscope at 7X magnification, and the length of each lesion present was determined using a calibrated reticule.
In this table, N indicates the number of rats tested for the stated dosage.
In other experiments aspirin and adenosine were dosed at separate times.

[2] = Toxicity (statement only, no method given); details: no data given
[3] = system: aspirin-induced gastric damage; test: Aspirin-induced gastric lesions in rats, adenosine injected i.p. 15 minutes prior to oral aspirin; assay type: in vivo; details: 125 mg/kg aspirin (p.o.) alone
Method: Parenteral administration of adenosine was also found to be protective against aspirin-induced gastric damage, as illustrated by the following experiment.
Rats, chosen and prepared as. above, were dosed with i.p. injections of adenosine in 0.9% sterile physiological saline solution, adjusted to pH 7 with IN NaOH. The adenosine solution was injected 15 minutes prior to an oral dose of 125 mg/kg aspirin.

[4] = system: occult blood loss from the G.I. tract; test: Occult blood loss from the G.I. tract of rats (Fe labeled ferrous citrate, 24 h feces collection); assay type: in vivo, male Sprague-Dawley rats; details: Adenosine 0, oral
Method: In addition to reducing macroscopic lesions in the stomach produced by aspirin ingestion, adenosine was also found to reduce occult blood loss from the G.I. tract of rats. In these experiments, male Sprague-Dawley rats were injected i.v. with […] Fe labeled ferrous citrate. Eight days after injection, feces were collected for 24 hours to establish base line data. The rats were then dosed orally with aspirin or aspirin-adenosine mixtures, as suspensions in 0.5% methylcellulose, and the feces were again collected for 24 hours. The rats were fasted during the 24-hour pre- dose period and for 2 hours after drug dosing.

[5] = system: Aspirin-induced damage in dogs; test: Aspirin-induced gastric damage in dogs, endoscopy; assay type: in vivo, male beagles; details: avg. dose aspirin 97.8-101 mg/kg, adenosine 100 mg/kg simultaneously, cimetidine 30 mg/kg about 1 hour before
Method: Fasted male beagles were orally dosed with tablets of aspirin, aspirin plus adenosine, or aspirin plus cimetidine. The aspirin and adenosine were dosed simultaneously. The cimetidine was dosed approximately 1 hour before the aspirin; the dose level of cimetidine was 5 times that needed to give a 90% reduction in acid secretion. Approximately 19 hours later, the dogs were again dosed and 4 hours later their stomachs were examined by endoscopy. The incidence of erosions was recorded and the overall gastric damage assessed subjectively, using an arbitrary grading scale.

Compound | inhibition in vivo at 125 mg/kg ([1]; vs aspirin-alone control) | minimization of gastric damage (statement in words) [1] | other results
OC[C@H]1O[C@@H](n2cnc3c2ncn2ccnc32)[C@H](O)[C@@H]1O [1,N^6-ethenoadenosine] | 50% | work only at relatively high dosage levels | 
Cn1cnc2c(ncn2[C@@H]2O[C@H](CO)[C@@H](O)[C@H]2O)c1=N [1-methyl adenosine] |  |  | % Reduction in Lesions ([1]; purine derivative dose 25 mg/kg with 125 mg/kg aspirin, vs aspirin-alone control): 16%
CC1(C)O[C@@H]2[C@H](O1)[C@@H](CO)O[C@H]2n1cnc2c(N)ncnc21 [2',3'-isopropylidine adenosine] | 95% |  | 
Nc1ncnc2c1ncn2[C@H]1C[C@H](O)[C@@H](COP(=O)(O)O)O1 [2'-deoxy-adenosine-5'-mono-phosphate] | 16% |  | 
Nc1ncnc2c1ncn2[C@H]1C[C@H](O)[C@@H](CO)O1 [2'-deoxyadenosine] | 64% |  | 
Nc1ncnc2c1ncn2[C@@H]1O[C@H](CO)C[C@H]1O [3'-deoxyadenosine] | -47% |  | 
CSC[C@H]1O[C@@H](n2cnc3c(N)ncnc32)[C@H](O)[C@@H]1O [5'-deoxy-5'-methylthioadenosine] | -102% |  | 
Nc1ncnc2c1nnn2[C@@H]1O[C@H](CO)[C@@H](O)[C@H]1O [8-azaadenosine] | 60% |  | 
Nc1ncnc2c1nc(Br)n2[C@@H]1O[C@H](CO)[C@@H](O)[C@H]1O [8-bromoadenosine] | 76% |  | 
Nc1ncnc2nc[nH]c12 [Adenine] | 94% | does work to minimize gastrointestinal damage | toxicity limits (statement in words) [2]: does not fall within the necessary toxicity limits
Nc1ncnc2c1ncn2[C@@H]1O[C@H](COP(=O)(O)OP(=O)(O)O)[C@@H](O)[C@H]1O [Adenosine-5'-diphosphate (ADP), adenosine-5'-diphosphate] | 50% | work only at relatively high dosage levels | 
Nc1ncnc2c1ncn2[C@@H]1O[C@H](COP(=O)(O)OP(=O)(O)OP(=O)(O)O)[C@@H](O)[C@H]1O [Adenosine-5'-triphosphonate (ATP), adenosine-5'-triphosphate] |  | work only at relatively high dosage levels | 
Nc1c2ncn([C@@H]3O[C@H](CO)[C@@H](O)[C@H]3O)c2nc[n+]1[O-] [Adenosine-N^1-oxide, adenosine-N^1-oxide] | 75% |  | 
NC(=O)NC1NC(=O)NC1=O (stereo not drawn) [Allantoin] | 30% |  | 
CC(=O)Oc1ccccc1C(=O)O [Aspirin, acetylsalicylic acid] |  |  | Lesion Length (mm) ± SEM ([1]; 125 mg/kg aspirin alone (control), oral, 2 h after dosing): 30.4 ±3.1 mm; Average Lesion Length (mm) ±SEM [3]: 36.1 ±10.8 mm; Blood Loss in 24 hrs. (µl) + S.D. ([4]; Aspirin 125 mg/kg): 158 ± 46 µL; Blood Loss in 24 hrs. (µl) + S.D. ([4]; Aspirin 300 mg/kg): 198 ± 131 µL and 224 ± 98 µL; Avg. Damage Grade ([5]; arbitrary subjective grading scale): 16; Avg. In-cidence of Erosions ([5]; oral tablets, two doses about 19 h apart, endoscopy 4 h after second): 80%
Nc1nc2c(ncn2[C@@H]2O[C@H](CO)[C@@H](O)[C@H]2O)c(=O)[nH]1 [Guanosine] | 41% | not useful | 
O=c1[nH]cnc2nc[nH]c12 [Hypoxanthine] | 13% |  | 
OC[C@H]1O[C@@H](n2cnc3c(O)ncnc32)[C@H](O)[C@@H]1O [Inosine] | 18% |  | 
Nc1ncnc2c1ncn2[C@@H]1O[C@H](CO)[C@@H](O)[C@H]1O [adenosine] |  |  | reduction in lesions ([1]; adenosine dosed 10 minutes after aspirin): < 10%; lesion reduction ([1]; adenosine dosed 10 minutes prior to aspirin): about 60%; lesion reduction ([1]; adenosine dosed 30 minutes prior to aspirin): about 45%; reduction in lesions ([1]; adenosine dosed simultaneously with aspirin): about 90%
Nc1nc2nc[nH]c2c(=O)[nH]1 [guanine] |  | not useful | 
